Data on three compounds can be found in patent US20220282222A1, “BIO-PRINTED KIDNEY TISSUE” (MURDOCH CHILDREN'S RESEARCH INSTITUTE, priority 2019, published 2022).

Entries after “also recorded” stand apart in the source; their conditions may differ. Read-outs that look alike come from different tables or passages of the source.

Data set [1] concerns bio-printed kidney organoids. Description: Organoid viability assessment by ATP content (CellTiter-Glo / CellTiter-Glo 3D) after drug treatment. As to conditions: for IC50: Homo sapiens, 72 h; for Cell viability as measured by cellular ATP content: 96-well format, 72-hour treatment, wide concentration range (1.5 μg/mL to 25 mg/mL). Here is the method:
(§1) Doxorubicin (Sigma-Aldrich, D1515) stock solution was prepared in DMSO. Amikacin, Tobramycin, Gentamycin, Neomycin, and Streptomycin were all procured through Sigma Aldrich (St. Louis, Mo.) and prepared as a 25 mg/ml solution in APEL media. Dosing for 6-well nephrotoxicity studies was performed by initially diluting doxorubicin DMSO stock in APEL media, and subsequently diluting further with additional media to achieve concentrations ranging from 0.3 to 10 μM. Dosing for 96-well nephrotoxicity evaluation was performed by serial dilution. For Doxorubicin, serial dilution of DMSO stocks was added to APEL media to achieve concentrations ranging from 24 nM to 25 μM. Aminoglycoside stock solutions were diluted serially with APEL media to generate dosing concentrations ranging from 1.5 μg/mL to 25 mg/mL. Drug dosing was initiated after day 21 or day 22 of the differentiation protocol. Dosing was performed by applying the full well volume of APEL medium±test article to the apical basket of a Transwell permeable support (4 mL for 6-well plates, 300 μL for 96-well plates). As media containing test articles was added to the Transwell permeable support, the organoids were fully submerged and exposed to any added compounds as the apical and basolateral compartments equilibrated. Drug-supplemented medium was replaced every other day until designated harvest time point.
Kidney organoid viability following drug treatment was assessed by measuring ATP content with CellTiter-Glo or CellTiter-Glo 3D viability assays (Promega, Madison, Wis., USA). In brief, harvested organoids from bio-printed in 6-well plates were individually loaded into Precellys tubes (Bertin Technologies, Bretonneux, France) with CellTiter-Glo buffer and dissociated using a Precellys 24 tissue homogenizer (Bertin Technologies, Bretonneux, France). Homogenized organoids were incubated at room temperature for 10 minutes, then centrifuged at 1000 g for 2 minutes to separate buffer from homogenizing beads. Supernatants were transferred to a white opaque 96-well plate for luminescence measurement on a microplate reader (BMG Labtech, Germany). […] To analyse the ATP content in organoids bio-printed on 96-well plates, all media was aspirated and CellTiter-Glo 3D reagent was added to the apical chamber of Transwell permeable support. The plate was shaken at 400 rpm for 5 minutes at room temperature, and then allowed to sit for 25 minutes prior to luminescent measurement in a white opaque 96-well plate on a microplate reader (BMG Labtech, Germany). Viability analysis was reported as percent of control by normalizing the ATP content of treated organoids relative to control organoids. […]

Data set [2] concerns podocytes of the organoid glomeruli. Description: Immunofluorescence analysis of bio-printed organoid sections after Doxorubicin treatment. The data set is classed as cell-based, human. Particulars: 10 μM Doxorubicin, 72 hours. The method, then:
For paraffin-embedded organoids, deparaffinized sections were antigen retrieved in citrate buffer, pH 6.0 (Diagnostic BioSystems, Pleasonton, CA #K035) then blocked in 5% chick serum diluted in TBS-T (v/v) prior to immunofluorescence. For whole mount organoids, organoid harvest, fixation and blocking, and immunofluorescence of prepared sections and whole organoids was performed as described previously (Vanslambrouck J M, et al. J Am Soc Nephrol 30, 1811-1823 (2019)). Images were obtained as described in Vanslambrouck J M, et al. or using an Andor spinning disk confocal microscope with Nikon 25×1.05NA silicone immersion objective.
Doxorubicin (Sigma-Aldrich, D1515) stock solution was prepared in DMSO. Amikacin, Tobramycin, Gentamycin, Neomycin, and Streptomycin were all procured through Sigma Aldrich (St. Louis, Mo.) and prepared as a 25 mg/ml solution in APEL media. Dosing for 6-well nephrotoxicity studies was performed by initially diluting doxorubicin DMSO stock in APEL media, and subsequently diluting further with additional media to achieve concentrations ranging from 0.3 to 10 μM. Dosing for 96-well nephrotoxicity evaluation was performed by serial dilution. For Doxorubicin, serial dilution of DMSO stocks was added to APEL media to achieve concentrations ranging from 24 nM to 25 μM. […]

Data set [3] deals with bio-printed kidney organoids. Put plainly: Quantitative RT-PCR gene expression analysis following drug exposure. Type of data set: cell-based, human. As to conditions: 72 hours. The method, then:
as §1
Total RNA extraction from kidney organoids following drug exposure was performed using an Rneasy Mini kit (Qiagen, Germany) per manufacturer's instructions. RNA was quantified with spectrophotometry with a NanoDrop 2000 (Thermo Fisher, Carlsbad, Calif.). To analyse gene expression, TaqMan Fast One-Step qPCR Master Mix (Applied Biosystems, Foster City, Calif.), TaqMan Probes for genes of interest (ThermoFisher, Carlsbad, Calif.), and house-keeping gene probes (Applied Biosystems, Foster City, Calif.) were combined in assigned wells with RNA. All qPCR reactions were performed and analysed on a StepOnePlus qRT-PCR system (Applied Biosystems, Foster City, Calif.). All data was normalized to house-keeping gene GAPDH prior to normalizing to control samples.

[4] abbreviates: 10 μM Doxorubicin, normalized to GAPDH and control.

As to `COc1cccc2c1C(=O)c1c(O)c3c(c(O)c1C2=O)C[C@@](O)(C(=O)CO)C[C@@H]3O[C@H]1C[C@H](N)[C@H](O)[C@H](C)O1` [Doxorubicin], in data set [1] (read-out: 6-well IC50 (viability, ATP content)), the 50% inhibitory concentration (IC50) stood at 3.9 ± 1.8 µM. In data set [1] (read-out: 96-well IC50 (viability, ATP content)), the IC50 is 3.1 ± 1 µM. For the same compound, in data set [2], the “Caspase 3 activation (cleaved caspase 3, apoptosis) in podocytes” value was “induction of apoptosis; also recorded: specific activation of caspase 3” and the “MAFB staining within podocytes of organoid glomeruli” value was “podocyte specific loss of MAFB expression; also recorded: loss of MAFB staining”. For the same compound, in data set [3] (2 μM Doxorubicin), the “Expression of podocyte marker NPHS1” value is “downregulated” and the “Expression of podocyte marker PODXL” value is “downregulated”. The “Expression of proximal tubule gene CUBN” value in data set [3] (2 μM or 10 μM Doxorubicin) is “only downregulated in response to 10 μM Doxorubicin”. Also, in data set [3] (setting [4]), the “Expression of apoptotic indicator Bcl2-associated X protein (BAX)” value is recorded as “upregulation” and the “Expression of kidney injury molecule KIM1 (HAVCR)” value is given as “upregulation”.
Take Gentamycin: in data set [1], the “Cell viability as measured by cellular ATP content” value is recorded as “decreased in a concentration-dependent fashion”.
Still for that read-out and setting: the same measure for Neomycin: “decreased in a concentration-dependent fashion”.
